Measured values: patent US4565813A, “1,4-Thiazine derivatives” (Zenyaku Kogyo Kabushiki Kaisha, priority 1983, dated 1986)
Where two headings read alike, the source gives them in different places.

How the values were obtained:
isolated atria = experiment: Contractile force of isolated atria; set-up: species or system guinea pig (male Hartley); conditions: Cavia porcellus; 50.0 μg/ml, isolated guinea pig atria; read-out: Maximum Contractile Force (increase)
Protocol: The pharmacological effects of the compound of the following general formula I will now be described: [drawing 9] wherein R1, R2 and R3 are as defined above. (1) The contractile force of isolated atria was tested according to the method of L. J. Macleod described in Pharmacological Experiments on Intact Preparations, pages 112-115 (1970). A 7-weeks-old male Hartley guinea pig (having a body weight of about 350 g) was killed by a blow on the head. The chest was opened and the heart was removed as quickly as possible and placed in Ringer-Locke solution (prepared by adding distilled water to 9.0 g of sodium chloride, 0.25 g of potassium chloride, 0.15 g of calcium chloride and 1.0 g of glucose so that the total amount was 1,000 ml) at room temperature. All other tissues was cut away until nothing was left except the atria. Threads were tied to each tip of the atria and the preparation thus obtained was mounted in Ringer-Locke solution at 30±1° C., through which a brisk stream of pure oxygen was bubbled. One thread was attached to a fixed pin in the Magnus' bath and the other to a force-displacement transducer connected to an electrical amplifier and recorder. When the rate and amplitude became constant, recording was started. After 1 minute, the solution of sample compound was injected and recording was conducted for 2 minutes. After completion of recording, the isolated atria was washed with Ringer-Locke solution until the rate and amplitude became constant. After 15 minutes, recording was started again.

coronary blood flow = experiment: Coronary-vasodilating action (Langendorff's method); set-up: species or system guinea pig (male Hartley); conditions: Cavia porcellus; for activation at 0.1 mg: dose 100 μg
Protocol: (3) The coronary-vasodilating effect was tested according to the method disclosed in Basic Lectures of Medicine Development, Volume V, Pharmacological Test Methods, Part 2, page 537 (1971). A 7-weeks-old male Hartley guinea pig (having a body weight of about 350 g) was used. And the measurement was carried out under a perfusion pressure of about 60 mmHg according to the Langendorff's method by using as a nutrient solution a Krebs' solution. The incubation temperature was 37° C.

[1] = system: systolic blood pressure and heart rate, rats; experiment: Effect on systolic blood pressure and heart rate (indirect tail-cuff method); assay type: in vivo, rat (male Wistar); conditions: 25 mg/kg p.o.
Protocol: Male Wister rats (having a body weight of about 350 g) were used. Systolic blood pressure and heart rate were measured in rats by indirect tail-cuff method, using a programmed electrosphymomanometer.

[2] = system: ventricular muscle and heart rate, anaesthetized dog; experiment: Contractile force of ventricular muscle and heart rate of anaesthetized dog; assay type: in vivo, dog (male); conditions: for Heart Rate (up): infused i.v. 320 μg/kg/minute, anaesthetized dog; for Contractile Force of Ventricular Muscles (increase): infused i.v. (left femoral vein) 320 μg/kg/minute until maximum inotropic effect
Protocol: (4) The contractile force of ventricular muscle and heart rate in anaesthetized dog was tested according to the method described in Basic Lectures of Medicine Development, Volume V, Pharmacological Test Methods, Part 2, page 544 (1971). A male dog (having a body weight of about 12-14 kg) was anaesthetized with 40 mg/kg body weight of pentobarbital sodium (i.p.). Supplemental dose of pentobarbital was administered whenever necessary. An intra-tracheal cannula was inserted and ventilation was carried out by means of Harvard constant-volume, positive pressure pump using room air. The chest was opened by a midline incision and the heart was suspended in the pericardial cradle. The contratile force of the myocardium was measured by means of Walton-Brodie type strain-gauge arch sutured onto the left ventricle. Systemic blood pressure was measured from the left femoral artery by a pressure transducer and heart rate was calculated by blood pressure pulses. Sample compounds were infused into the left femoral vein at a rate of 320 μg/kg/minute until a maximum inotropic effect is obtained.

[3] = system: isolated papillary muscles; experiment: Contractile force of isolated papillary muscles; set-up: species or system cat (female); conditions: Felis catus, isolated cat papillary muscles, read-out: Maximum Contractile Force (increase); for activation at 10 µg/mL: 1.0 × 10^-5 g/ml
Protocol: (2) The contractile force of isolated papillary muscles was tested according to the method described in Basic Lectures of Medicine Development, Volume V, Pharmacological Test Methods, Part 2, page 535 (1971). A female cat (having a body weight of about 3.5 kg) was anaesthetized with ether-chloroform gas and exsanguinated. The chest of each cat was opened and the heart was excised, rinsed with Krebs-Henseleitsolution (prepared by adding distilled water to 6.92 g of sodium chloride, 0.35 g of calcium chloride, 0.29 g of magnesium sulfate, 0.16 g of mono-basic potassium phosphate, 2.1 g of sodium bicarbonate and 1.8 g of glucose so that the total amount was 1 l) and one or more small, thin papillary muscles from the right ventricule were dissected. Then papillary muscles were mounted in 20 ml Magnus' bath containing Krebs-Henseleit solution bubbled with oxygen gas at a temperature of 30±1° C. The papillary muscles were stimulated electrically at the rate of 2 beat/sec. and a voltage of 20% above threshold. The developed tension of the muscles was recorded isometrically on recorder by the use of force displacement tansducers.

[4] = system: smooth muscle of bronchus; experiment: Bronchodilation effect (tracheal ring chain); set-up: species or system guinea pig (male Hartley)
Protocol: (7) The bronchodilation effect was tested according to the method of L. J. Macleod in Pharmacological Experiments on Intact Preparations, Pages 100-103 (1970). A 7-weeks-old, male Hartley guinea pig (having a body weight of about 350 g) was killed by a blow on the head and cutting the throat. The trachea was dissected out and transferred into Krebs' solution. The excessive tissue was removed and the trachea was cut transversely with great care not to damage smooth muscle, to form at least 5 tracheal rings which are tied together so as to form chain. One thread was attached to a fixed pin in the Magnus' bath and the other, to a force-displacement transducer connected to an electrical amplifier and recorder. Experiments with this preparation were performed at 37±1° C. in Krebs' solution through which O2 plus 5% CO2 was bubbled. The sample compound was injected and the recording was conducted for 4 minutes. After completion of the recording, the sample was washed out with Krebs' solution until the base line became stable. After 30 to 50 minutes, the recording was started again.

[5] = Acute toxicity (Litchfield-Wilcoxon method); conditions: mouse, in vivo, iv; tail vein, 6-weeks-old male ddY mice
Protocol: The acute toxicity of the compound of the general formula I was determined according to the Litchfield-Wilcoxon method [J. Pharm. Exp. Ther., 96, 99 (1949)] using 6-weeks-old male ddY mice (having a body weight of 19 to 24 g) while administrating the sample compound in the tail vein.

platelet aggregation = experiment: Inhibition of platelet aggregation; assay type: cell-based, rat (male Wistar); conditions: Rattus norvegicus, 83.0 μg/ml
Protocol: (5) The inhibition of platelet aggregation was determined according to the method of Yamazaki [Hiroo Yamazaki, Clinical Inspections, 22, (9) 935-943 (1978)]. Eleven-weeks-old male Wistar rats (having a body weight of about 350 g) were used. Blood was drawn by venupuncture in the […]. Nine fold volume of blood was drawn, with mixing, into a syringe containing one volume of 3.1% (W/V) sodium citrate. Platelet-rich-plasma (PRP) was collected as the supernatant after centrifuging the citrated blood at 1,000 rpm for 10 min. Platelet-poor-plasma (PPP) was the resulting supernatant after the residual citrated blood was additionally centrifuged at 3,000 rpm for 10 min. Each 210 μl aliquot of PPP and PRP was placed in cuvette and stirred at 37° C. in aggregometer. The aggregation reactions were determined by changes in light transmissions. A 20 μl sample was injected into PRP in the aggregometer, and 1-2 min. later, a 20 μl aggregation stimulant was injected. Aggregation pattern and maximal aggregation rate of each sample were compared with those of control. 100 μM of ADP (adenosine-5'-diphosphate or 100 μg/ml of collagen was used as the aggregation stimulant. The obtained results are shown in Table 5.

[6] = read-out: Coronary Blood Flow Increase Ratio, Maximum Increase Ratio of Sample
[7] = 0.5 h, dose 500 μg, 30 minutes, read-out: Coronary Blood Flow Increase Ratio, 30 Minutes after Administration
[8] = dose 500 μg, read-out: Coronary Blood Flow Increase Ratio, Maximum Increase Ratio of Sample

Structure (SMILES)	activation at 50 µg/mL (isolated atria)	activation at 0.5 mg (coronary blood flow; [7])	activation at 0.5 mg (coronary blood flow; [8])	Blood Pressure (systolic), direction of change [1]	Heart Rate (up) [1]	other results
CC(C)NCC(O)c1ccc(O)c(O)c1 (centres unmarked) [isoproterenol, reference compound]	40%	–	–	–	–	–
O=NO [Sodium nitrite, reference compound]	–	–	–	–	–	activation at 0.5 mg (coronary blood flow; 0.5 h, read-out: Coronary Blood Flow Increase Ratio, 30 Minutes after Administration): 5%; activation at 0.5 mg (coronary blood flow; [6]): 20%
Cn1c(=O)c2[nH]cnc2n(C)c1=O [Theophylline, reference compound]	–	-10%	32%	increase	29%	–
CC1=C(C2CCNCC2)SCC(=O)N1 [By-product, 5-methyl-6-(4-piperidinyl)-2H-1,4-thiazin-3(4H)-one]	5%	5%	12%	–	–	–
CC1=C(c2ccncc2)SCC(=O)N1 [R1 = H, R2 = CH3, R3 = H, 5-methyl-6-(4-pyridinyl)-2H-1,4-thiazin-3(4H)-one]	40%	10%	71%	decrease	19%	Heart Rate (up) [2]: 30%; Contractile Force of Ventricular Muscles (increase) [2]: 170%; activation at 10 µg/mL [3]: 61%; activation at 1 µg/mL ([3]; 1.0 × 10^-6 g/ml): 27%; Influence of Smooth Muscle of Bronchus (relaxed by) [4]: ≥ 0.13 m/m; LD50 [5]: 165 to 200 mg/kg; inhibition at 83 µg/mL (platelet aggregation; stimulant 100 μM ADP, read-out: Aggregation Inhibition Ratio, ADP): 80%; inhibition at 83 µg/mL (platelet aggregation; stimulant 100 μg/ml collagen, read-out: Aggregation Inhibition Ratio, Collagen): 100%
CC1=C(c2ccncc2)SCC(=O)N1C [R1 = CH3, R2 = CH3, R3 = H, 4,5-dimethyl-6-(4-pyridinyl)-2H-1,4-thiazin-3-one]	18%	–	–	–	–	activation at 0.1 mg (coronary blood flow; 0.5 h, 30 minutes, read-out: Coronary Blood Flow Increase Ratio, 30 Minutes after Administration): 8%; activation at 0.1 mg (coronary blood flow; [6]): 28%
Cc1[nH]c(=O)c(C#N)cc1-c1ccncc1 [Milrinone]	–	–	–	decrease	51%	–
Nc1cc(-c2ccncc2)c[nH]c1=O [amrinone, reference compound]	–	–	–	–	–	Heart Rate (up) [2]: 25%; Contractile Force of Ventricular Muscles (increase) [2]: 25%; activation at 100 µg/mL ([3]; 1.0 × 10^-4 g/ml): 77%; activation at 10 µg/mL [3]: 17%
